Test results from patent US9051335B2, “Antipruritic agent for pruritus caused by multiple sclerosis” (TORAY INDUSTRIES, INC., priority 2005, dated 2015).

Tested on: MRL/lpr mice
Experiment: Spontaneous scratching behavior in MRL/lpr mice (antipruritic effect)
Type: in vivo
Details: 20 weeks old female MRL/lpr mice, n=8
Description: [drawing 8] which is an κ opioid receptor agonist compound against pruritus was evaluated. The evaluation was carried out over 5 days dividedly. On Day 1, sterilized distilled water was orally administered 30 minutes before the beginning of the recording of the scratching behavior, and the number of scratching behavior when the mouse received a solvent was counted for 60 minutes. On Day 2, Compound 1 was orally administered to the same mouse 30 minutes before the beginning of the recording of the scratching behavior at a dose of 3 μg/kg, and the number of scratching behavior was counted for 60 minutes. On Days 3 to 5, the experiments were carried out in the same schedule as in Day 2 increasing the dose of Compound 1 such that the doses of Compound 1 on Day 3, Day 4 and Day 5 were 10 μg/kg, 30 μg/kg and 100 μg/kg, respectively (n=8). […] The number of scratching behavior was counted visually by replaying the video tape. The number of scratching behavior was counted such that the series of behavior from raising the hind leg for starting the scratching to putting down the hind leg were counted as one scratching behavior. […]

Q: Which “number of scratching behavior (60 minutes) versus control group at the time of administration of the solvent” value (30 μg/kg orally 30 minutes before recording, significant at statistical level of 5%) does the source give for `CN(C(=O)/C=C/c1ccoc1)[C@@H]1CC[C@@]2(O)[C@H]3Cc4ccc(O)c5c4[C@@]2(CCN3CC2CC2)[C@H]1O5.Cl` [Compound 1, (−)-17-cyclopropylmethyl-4,5α-epoxy-3,14β-dihydroxy-6β-(N-methyl-trans-3-(3-furyl)acrylamido)morphinan hydrochloric acid salt] here?
A: decreased

Q: And the “number of scratching behavior (60 minutes) versus control group at the time of administration of the solvent” value (100 μg/kg orally 30 minutes before recording, significant at statistical level of 1%)?
A: decreased
